# Assay results reported in US20020183340A1, “4-(4'-HYDROXYPHENYL) AMINO-6,7-DIMETHOXYQUINAZOLINE TO PREVENT DEVELOPMENT OF COLORECTAL CANCER” (Parker Hughes Institute, priority 1999, published 2002).
# Tested on: APC^min mouse model
# Test: APC^min mouse model of colorectal cancer development (chow supplemented with compound)
# Type: in vivo, mice
# Conditions: for Probability Of Survival: APC^min mice fed chow with 0.3 wt % compound once a week from six weeks of age, n = 23
# Excerpt: An APC^min mouse model was used to test the ability of 4-(4′-hydroxyphenyl)-amino-6,7-dimethoxyquinazoline to prevent the development of colorectal cancer. A total of 23 APC^min mice were fed rodent chow, which was supplemented with 0.3 wt % 4-(4′-hydroxyphenyl)-amino-6,7-dimethoxyquinazoline once a week starting at six weeks of age. A control group of 30 mice were fed rodent chow without 4-(4′-hydroxyphenyl)-amino-6,7-dimethoxyquinazoline. The health status of the mice was monitored for thirty weeks. Table 1 below describes the Probability of Survival for each group of mice over a period of 210 days.
compound,measurement,setting,value
"COc1cc2ncnc(Nc3ccc(O)cc3)c2cc1OC [4-(4′-hydroxyphenyl)-amino-6,7-dimethoxyquinazoline]",Probability Of Survival,age 90 days,100 ± 0
same,Probability Of Survival,age 120 days,94 ± 5
same,Probability Of Survival,age 150 days,81 ± 10
same,Probability Of Survival,age 180 days,68 ± 12
same,Probability Of Survival,age 210 days,68 ± 12
same,mice still alive,"by thirty weeks of age, mice fed compound (17% of the control mice)",68%
